In patent publication CN110179802A (priority 2019, dated 2019):

Experiments:
[1] = test system: haemolytic activity of MRSA43300 culture supernatant on rabbit erythrocytes (MRSA43300培养物上清对兔红细胞的溶血活性); test: Haemolytic activity of MRSA43300 culture supernatant on rabbit erythrocytes after co-culture at sub-inhibitory concentrations; type: cell-based, MRSA 43300 (Staphylococcus aureus); rabbit erythrocytes; conditions: for inhibition rate of haemolysis: 16 h at 37℃ with MRSA43300, 543 nm
α-hemolysin (α-溶血素) = type: cell-based, Staphylococcus aureus (MRSA43300)
MRSA43300 = test: Antibacterial activity against MRSA43300; type: cell-based, Staphylococcus aureus (MRSA43300)
[2] = test system: Staphylococcus aureus (金黄色葡萄球菌); conditions: cited from earlier work
MRSA = conditions: cited from earlier work
[3] = test system: Streptococcus pyogenes (酿脓链球菌); conditions: cited from earlier work
[4] = test system: Mycoplasma pneumonia (肺炎支原体); conditions: cited from earlier work
Pyogeniccoccus (化脓链球菌) = conditions: cited from earlier work
[5] = in vivo; cited from earlier work
HIa gene (HIa基因) = test: Real-time PCR of HIa gene transcription in MRSA43300
agrA gene (agrA基因) = test: Real-time PCR of agrA gene transcription in MRSA43300
[6] = 1/2MIC, 1/4MIC, 1/8MIC, compared with control group

## C=C[C@]1(C)C[C@@H](OC(=O)CSc2nc(N)cc(N)n2)[C@]2(C)[C@H](C)CC[C@]3(CCC(=O)[C@H]32)[C@@H](C)[C@@H]1O [14-O-[(4,6-二氨基嘧啶-2-基)巯乙酰基]姆体林]
[1]; 1/2MIC
  inhibition rate of haemolysis: 97.24±1.15%
[1]; 1/4MIC
  inhibition rate of haemolysis: 96.4±2.1%
[1]; 1/16MIC
  inhibition rate of haemolysis: 31.5±7.86%
[1]; sub-inhibitory concentrations, 1/2MIC to 1/32MIC
  inhibition of haemolytic activity, concentration dependence: 抑制能力随药物浓度的升高而增强
α-hemolysin (α-溶血素)
  content of α-hemolysin in culture supernatant: 能减少培养物上清中的α-溶血素的含量,且呈明显的浓度依赖性
MRSA43300
  antibacterial activity: 较好抑菌活性
[2]
  antibacterial activity: 良好的抑菌活性
MRSA
  antibacterial activity: 良好的抑菌活性
[3]
  antibacterial activity: 良好的抑菌活性
[4]
  antibacterial activity: 良好的抑菌活性
Pyogeniccoccus (化脓链球菌)
  antibacterial activity: 良好的抑菌活性
[5]
  toxicity: 毒性低
HIa gene (HIa基因); [6]
  HIa gene transcription level: 与对照组相比差异极显著
HIa gene (HIa基因); 1/16MIC, compared with control group
  HIa gene transcription level: 与对照组相比差异显著
HIa gene (HIa基因); 1/32MIC
  HIa gene transcription level: 不影响HIa基因转录水平
agrA gene (agrA基因); [6]
  agrA gene transcription level: 与对照组相比差异显著
agrA gene (agrA基因); 1/16MIC
  agrA gene transcription level: 没有明显的影响
agrA gene (agrA基因); 1/32MIC
  agrA gene transcription level: 不影响agrA的基因转录水平
